The values that follow come from ChEMBL document CHEMBL1201862, “PubChem BioAssay data set” (2004).

Assay [1] is described as follows: THP-1 cell cytotoxicity, dose response, cytotoxicity control for non-replicating M. tuberculosis project (AID 489025). The format is functional.
Assay [2] in a line: toxicity toward HepG2 liver cells – cell-based, plate reader, cherry-pick, antagonist series, cytotoxicity control, dose response (AID 743416). The format is functional.
The nature of assay [3]: A High Throughput Confirmatory Assay used to Identify Novel Compounds that Inhibit Mycobacterium Tuberculosis in the absence of Glycerol. The format is functional.
Assay [4] in a line: microbe, parasite or virus in culture. The format is functional. The conditions noted are these: Mycobacterium tuberculosis.
Assay [5] in a line: viability loss in HEK293 cells – cell-based, plate reader, cherry-picked samples, cytotoxicity control, dose response (AID 743446). Type of assay: functional.
The nature of assay [6]: blockade of melanocortin 4 receptor signaling – cell-based, plate reader, cherry pick, counter-screen for LGR2 antagonist project, dose response (AID 743444).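 Note: transfected HEK 293 cells stimulated with alpha-MSH peptide; potency of inhibitors of the alpha-MSH evoked signal.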 The format is functional. On the technique in general: The purpose of a counterscreen is to sort out artefacts and off-target activity.
Assay [7] in a line: A549 cell cytotoxicity, dose response, cytotoxicity control, plate reader, cherry-pick, antagonist series (AID 743412). Type of assay: functional, cell-based.
The nature of assay [8]: blockers of bursicon-stimulated LGR2 cAMP reporter – cell-based, HEK293, CRE-luciferase reporter, cherry pick, set 2, dose response (AID 743343).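 Note: transfected cells were stimulated with diluted bursicon conditioned medium after compound addition.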 Type of assay: functional. A general note: A reporter such as luciferase makes a cellular process visible.
The nature of another assay: cells. Type of assay: functional.
Assay [9] in a line: A cytotoxicity screen of small molecule inhibitors of the PhoP region in Salmonella typhi identified in the primary screen. [Related pubchem assays: 1850, 1864, 1985 ]. The format is functional.
The target of assay [10] is T1, Lysosomal acid glucosylceramidase (Homo sapiens, UniProt P04062).
T1 sequence (P04062 whole entry): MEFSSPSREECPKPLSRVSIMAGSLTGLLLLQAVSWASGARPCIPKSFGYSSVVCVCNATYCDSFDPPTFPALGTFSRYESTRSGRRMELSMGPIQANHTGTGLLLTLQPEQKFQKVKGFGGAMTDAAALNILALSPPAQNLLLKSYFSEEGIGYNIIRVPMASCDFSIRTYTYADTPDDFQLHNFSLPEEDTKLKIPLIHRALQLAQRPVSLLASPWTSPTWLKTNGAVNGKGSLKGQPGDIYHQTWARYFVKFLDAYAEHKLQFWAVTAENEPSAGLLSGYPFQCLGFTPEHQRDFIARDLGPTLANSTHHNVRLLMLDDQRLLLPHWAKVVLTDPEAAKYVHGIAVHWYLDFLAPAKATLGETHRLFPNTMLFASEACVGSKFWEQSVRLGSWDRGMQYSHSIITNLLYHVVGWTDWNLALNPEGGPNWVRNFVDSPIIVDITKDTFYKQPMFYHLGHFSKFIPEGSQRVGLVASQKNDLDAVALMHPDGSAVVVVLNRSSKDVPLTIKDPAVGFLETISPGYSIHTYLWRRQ
Kind of assay: Dose response cell-based high throughput screening assay to identify enhancers of beta-glucosidase activity. [Related pubchem assays: 784 ]. The format is functional.

In another assay the target is T2, Cytochrome P450 1A2 (Homo sapiens, UniProt P05177).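 Note: PubChem cytochrome P450 panel assay, CYP1A2 panel member.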
T2 sequence (P05177 whole entry): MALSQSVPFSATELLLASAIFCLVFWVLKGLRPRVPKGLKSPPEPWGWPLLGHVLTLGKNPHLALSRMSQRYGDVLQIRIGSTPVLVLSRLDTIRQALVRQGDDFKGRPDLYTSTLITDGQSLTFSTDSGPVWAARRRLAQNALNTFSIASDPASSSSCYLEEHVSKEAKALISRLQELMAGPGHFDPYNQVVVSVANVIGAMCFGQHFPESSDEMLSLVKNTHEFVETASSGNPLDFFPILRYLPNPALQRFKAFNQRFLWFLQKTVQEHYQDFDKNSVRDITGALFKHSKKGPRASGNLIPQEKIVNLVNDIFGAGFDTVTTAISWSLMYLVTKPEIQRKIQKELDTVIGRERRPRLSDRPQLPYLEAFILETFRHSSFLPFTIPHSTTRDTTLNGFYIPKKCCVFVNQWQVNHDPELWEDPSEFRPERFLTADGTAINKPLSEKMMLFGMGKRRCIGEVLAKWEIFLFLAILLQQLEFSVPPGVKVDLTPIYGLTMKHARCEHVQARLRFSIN

The next assay deals with Cytochrome P450 2C19 (Homo sapiens, UniProt P33261). Kind of assay: Cytochrome panel assay with activity outcomes. Panel member name: p450-cyp2c19 Compounds with AC50 equal or less than 10 uM are considered active. Type of assay: functional. The conditions noted are these: read-out: AC50.
Sequence of Cytochrome P450 2C19 (P33261 whole entry): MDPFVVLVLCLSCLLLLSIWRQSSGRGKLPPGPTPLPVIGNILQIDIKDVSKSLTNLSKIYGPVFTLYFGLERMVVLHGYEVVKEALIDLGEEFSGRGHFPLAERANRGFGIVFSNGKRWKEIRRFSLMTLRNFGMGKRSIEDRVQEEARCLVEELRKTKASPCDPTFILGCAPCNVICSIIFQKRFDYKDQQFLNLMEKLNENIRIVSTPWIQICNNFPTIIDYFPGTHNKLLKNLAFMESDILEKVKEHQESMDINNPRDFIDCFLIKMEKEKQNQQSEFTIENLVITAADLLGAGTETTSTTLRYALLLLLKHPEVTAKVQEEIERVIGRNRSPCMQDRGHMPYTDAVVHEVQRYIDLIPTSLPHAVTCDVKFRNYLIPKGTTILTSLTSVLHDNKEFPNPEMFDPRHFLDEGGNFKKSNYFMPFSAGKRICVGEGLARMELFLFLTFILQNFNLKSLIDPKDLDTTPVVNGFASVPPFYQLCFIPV
For another assay, the target named is Cytochrome P450 3A4 (Homo sapiens, UniProt P08684).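 Note: CYP3A4 tested as one member of a cytochrome P450 panel screen.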
Sequence of Cytochrome P450 3A4 (P08684 whole entry): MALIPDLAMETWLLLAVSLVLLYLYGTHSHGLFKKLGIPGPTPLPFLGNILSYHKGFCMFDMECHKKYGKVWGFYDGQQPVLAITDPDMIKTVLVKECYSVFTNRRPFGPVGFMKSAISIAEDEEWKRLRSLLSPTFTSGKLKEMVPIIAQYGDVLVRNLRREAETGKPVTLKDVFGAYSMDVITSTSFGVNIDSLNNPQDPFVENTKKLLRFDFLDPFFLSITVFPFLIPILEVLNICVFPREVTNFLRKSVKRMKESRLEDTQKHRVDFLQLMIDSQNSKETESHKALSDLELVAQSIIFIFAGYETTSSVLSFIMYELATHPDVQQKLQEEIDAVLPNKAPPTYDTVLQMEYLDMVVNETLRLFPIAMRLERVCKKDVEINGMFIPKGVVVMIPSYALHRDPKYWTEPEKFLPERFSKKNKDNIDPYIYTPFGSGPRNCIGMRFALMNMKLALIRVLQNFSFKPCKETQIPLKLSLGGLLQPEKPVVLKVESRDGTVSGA
A short description of assay [11]: cytotoxicity toward HT-29 cells – cell-based, CellTiter-Glo luminescence, IC50, dose response (AID 1117330). The format is functional. Background: Cellular ATP, detected with luciferase, serves as a proxy for viable cell number.
Assay [12] is described as follows: cytotoxicity toward Colo320 cells – cell-based, CellTiter-Glo luminescence, IC50, dose response (AID 1117334). The format is functional. The conditions noted are these: COLO 320.
Assay [13] in a line: cytotoxicity toward HCT116 cells – cell-based, CellTiter-Glo luminescence, IC50, dose response (AID 1117332). Type of assay: functional. The conditions noted are these: HCT-116.
A short description of assay [14]: HCT116 cell viability decrease, GSK3B pretreatment – CellTiter-Glo, IC50, dose response (AID 1117339). The format is functional. The conditions noted are these: HCT-116.
Assay [15] can be described thus: RKO cell viability reduction, dose response, CellTiter-Glo luminescence (AID 1117322). The format is functional.
Assay [16] is described as follows: SNU-C1 cell viability reduction, dose response, CellTiter-Glo luminescence (AID 1117323). Type of assay: functional, cell-based.
Assay [17] in a line: Reduced DLD-1 viability, concentration-response, CellTiter-Glo luminescence (AID 1117352). The format is functional.
Assay [18] in a line: CellTiter-Glo luminescence survival assay, SW480 colon tumor line, concentration-response curve, half-maximal inhibitory concentration (AID 1117338). Type of assay: functional.

SMILES strings stand for the structures. Counter-ions that a name gives are not always drawn. The source made the active and inactive calls.

In the case of `Cc1ccnc(NC(=O)c2cc3ccccc3o2)c1`, the CC50 in assay [1] and in assay [4] was > 40 µM (active) each time. For the same molecule, the AC50 in assay [2] is > 52 µM (inactive); in [5] it was 52 µM (active); in assay [6], 2.06 µM (active); in assay [7], 30 µM (active); in assay [8] it was 2.27 µM (active). For the same molecule, the IC50 was > 50 µM (active) in [3] and 19.3 µM (active) in the assay “cells”.
Consider `O=C(CN(Cc1ccco1)C(=O)CNS(=O)(=O)c1ccc(Cl)cc1)NCc1ccc(F)cc1`, for which, in assay [9], the concentration giving a half-maximal response (EC50) was > 50 µM (active).
In the case of `Cc1ccc(C)c(NC(=O)C2CC(O)CN2C(=O)OC(C)(C)C)c1` (stereo not drawn), the EC50 in [10] was > 50 µM (not active). Besides, the AC50 at Cytochrome P450 1A2 was 31.6 µM (inconclusive); on Cytochrome P450 2C19, 28.2 µM (inconclusive); on Cytochrome P450 3A4 it was 25.1 µM (inconclusive).
In the case of `C=CCN(C(=O)Cn1nnc2ccccc21)C(C(=O)NCCOC)c1ccc(OC)cc1OC` (stereo not drawn), in [10], the EC50 is on record as > 50 µM (not active).
The same measure, in the same setting: then `Cc1c(Cl)cccc1N(CC(=O)O)S(C)(=O)=O`, with > 50 µM (not active).
For the molecule `Cc1ccc(NC(=O)C(=O)NNC(=O)c2cccs2)cc1`, the EC50 in assay [9] was > 50 µM (active).
Take `CCC(C(=O)OCCOCCN(CC)CC)c1ccccc1` (stereo not drawn) [BUTAMIRATE CITRATE]: the IC50 in assay [11], in assay [12], in assay [13], in [14], in [15] and in [16] was > 20 µM (inactive) throughout. Besides, the IC50 in assay [17] and in [18] was > 20 µM (inactive) throughout.
On to `CC(C)Cn1cnc2c1c(=O)n(C)c(=O)n2C` [ISBUFYLLINE], for which the IC50 in [11], in assay [12], in assay [13], in assay [14], in assay [15] and in assay [16] was > 20 µM (inactive) each time. Also, the IC50 in assay [17] and in assay [18] was > 20 µM (inactive) in each case.

Usually AC50 stands for the midpoint of the concentration-response curve, whichever way the signal moves. As usually defined, the IC50 is the concentration that inhibits the measured activity by half. As a reminder, the EC50 is the concentration giving half of the maximal effect.
